The record followed here is patent US9409905B2, “Antibacterial compounds and methods for use” (PTC THERAPEUTICS, INC., priority 2011, dated 2016).

In assay [1] the test system is Escherichia coli (E. coli) BAS849. The assay can be described thus: Antibacterial activity, microbroth dilution MIC (Table 1). The class given is cell-based. The conditions noted are these: microbroth dilution, super sensitive Gram-negative E. coli BAS849, read-out: MIC, BAS849. An excerpt:
(§1) The antibacterial activity from a microbroth dilution method may be presented as the minimum inhibitory concentration (MIC in μg/mL). The MIC value is the lowest concentration of drug which prevents macroscopically visible growth under test conditions.
(§2) Antibacterial activity of test compounds against the super sensitive Gram-negative Escherichia coli (E. coli) BAS849 bacterium, the control Gram-negative E. coli 25922 strain and the Gram-positive Staphylococcus aureus (S. aureus) 29213 bacterium are shown in Table 1.

Assay [2] deals with Staphylococcus aureus (S. aureus) 29213. The assay is described as above. The conditions noted are these: microbroth dilution, Gram-positive S. aureus 29213, read-out: MIC, 29213. In kind it is cell-based.
Excerpt: as §1, §2

Another assay has as its system E. coli 25922. The assay is described as above. In kind it is cell-based, Escherichia coli. The conditions noted are these: Escherichia coli; microbroth dilution; control Gram-negative E. coli 25922 strain; read-out: MIC, 25922.
Excerpt: as §1, §2

The subject of another assay is E. coli LZ3111. Put plainly: Antibacterial activity, MIC, quinolone resistant strain (Table 2). The class given is cell-based. The conditions noted are these: Escherichia coli, LZ3111, read-out: MIC LZ3111.
Excerpt: as §1
Mutations in these regions are known to confer a high level resistance to the quinolone class of antibiotics.

≈ marks a conversion by molar mass, not a printed value.

For the compound `CCc1cc(C(=O)O)c(=O)[nH]c1-c1cc2cc(CN(CC)CC)n(C)c2cc1Cl` [Cpd 92, 6-(6-chloro-2-((diethylamino)methyl)-1-methyl-1H-indol-5-yl)-5-ethyl-2-oxo-1,2-dihydropyridine-3-carboxylic acid], the MIC (in assay [1]; in assay [2]; in the assay on E. coli 25922; with E. coli LZ3111) was 12.5 to 150 µg/mL (≈ 30.1 to 361 µM) in each case.

As to `CCc1cc(C(=O)O)c(=O)[nH]c1-c1cc2cc(CN(C)C)n(C)c2cc1Cl` [Cpd 93, 6-(6-chloro-2-((dimethylamino)methyl)-1-methyl-1H-indol-5-yl)-5-ethyl-2-oxo-1,2-dihydropyridine-3-carboxylic acid], the MIC (in assay [1]; in assay [2]; in the assay with E. coli 25922; in the assay on E. coli LZ3111) was 12.5 to 150 µg/mL (≈ 32.2 to 387 µM) in each case.

Turning to `CCc1cc(C(=O)O)c(=O)[nH]c1-c1cc2cc(CN3CCOCC3)n(C)c2cc1C` [Cpd 94, 6-(1,6-dimethyl-2-(morpholinomethyl)-1H-indol-5-yl)-5-ethyl-2-oxo-1,2-dihydropyridine-3-carboxylic acid], the minimum inhibitory concentration (MIC) (in assay [1]; in assay [2]; in the assay on E. coli 25922; with E. coli LZ3111) was 12.5 to 150 µg/mL (≈ 30.5 to 366 µM) in each case.

Take `CCc1cc(C(=O)O)c(=O)[nH]c1-c1cc2cc(CN(CC)CC)n(C)c2cc1C` [Cpd 95, 6-(2-((diethylamino)methyl)-1,6-dimethyl-1H-indol-5-yl)-5-ethyl-2-oxo-1,2-dihydropyridine-3-carboxylic acid]: the MIC (in assay [1]; in assay [2]; in the assay on E. coli 25922; with E. coli LZ3111) was 12.5 to 150 µg/mL (≈ 31.6 to 379 µM) each time.

As to `CCc1cc(C(=O)O)c(=O)[nH]c1-c1cc2cc(CN(C)C)n(C)c2cc1C` [Cpd 96, 6-(2-((dimethylamino)methyl)-1,6-dimethyl-1H-indol-5-yl)-5-ethyl-2-oxo-1,2-dihydropyridine-3-carboxylic acid], the MIC (in assay [1]; in assay [2]; with E. coli 25922; in the assay with E. coli LZ3111) was 12.5 to 150 µg/mL (≈ 34 to 408 µM) each time.

Consider `CCc1cc(C(=O)O)c(=O)[nH]c1-c1cc(F)c2c(c1)cc(CN1CCCC1)n2C` [Cpd 97, 5-ethyl-6-(7-fluoro-1-methyl-2-(pyrrolidin-1-ylmethyl)-1H-indol-5-yl)-2-oxo-1,2-dihydropyridine-3-carboxylic acid], for which the MIC in assay [1] is less than 1 µg/mL; in assay [2], 12.5 to 150 µg/mL (≈ 31.5 to 377 µM); in the assay with E. coli 25922, 1 to 3.5 µg/mL (≈ 2.52 to 8.81 µM); in the assay on E. coli LZ3111, 12.5 to 150 µg/mL (≈ 31.5 to 377 µM).

With `CCc1cc(C(=O)O)c(=O)[nH]c1-c1cc(F)c2c(c1)cc(CN1CCOCC1)n2C` [Cpd 98, 5-ethyl-6-(7-fluoro-1-methyl-2-(morpholinomethyl)-1H-indol-5-yl)-2-oxo-1,2-dihydropyridine-3-carboxylic acid], the minimal inhibitory concentration (MIC) was less than 1 µg/mL in assay [1], 12.5 to 150 µg/mL (≈ 30.2 to 363 µM) in assay [2], 3.5 to 12.5 µg/mL (≈ 8.47 to 30.2 µM) in the assay with E. coli 25922 and 12.5 to 150 µg/mL (≈ 30.2 to 363 µM) in the assay on E. coli LZ3111.

In the case of `CCc1cc(C(=O)O)c(=O)[nH]c1-c1cc(C)c2c(c1)cc(CN1CCCC1)n2C` [Cpd 99, 6-(1,7-dimethyl-2-(pyrrolidin-1-ylmethyl)-1H-indol-5-yl)-5-ethyl-2-oxo-1,2-dihydropyridine-3-carboxylic acid], the MIC in assay [1] was less than 1 µg/mL; in assay [2] it was 12.5 to 150 µg/mL (≈ 31.8 to 381 µM); in the assay with E. coli 25922, 3.5 to 12.5 µg/mL (≈ 8.89 to 31.8 µM); in the assay on E. coli LZ3111, 12.5 to 150 µg/mL (≈ 31.8 to 381 µM).

With `CCc1cc(C(=O)O)c(=O)[nH]c1-c1cc(C)c2c(c1)cc(CN1CCCCC1)n2C` [Cpd 100, 6-(1,7-dimethyl-2-(piperidin-1-ylmethyl)-1H-indol-5-yl)-5-ethyl-2-oxo-1,2-dihydropyridine-3-carboxylic acid], the MIC in assay [1] was less than 1 µg/mL; in assay [2], 12.5 to 150 µg/mL (≈ 30.7 to 368 µM); with E. coli 25922 it was 3.5 to 12.5 µg/mL (≈ 8.59 to 30.7 µM); in the assay with E. coli LZ3111, 12.5 to 150 µg/mL (≈ 30.7 to 368 µM).

As to `CCc1cc(C(=O)O)c(=O)[nH]c1-c1cc(F)c2c(c1)cc(CN(CC)CC)n2C` [Cpd 101, 6-(2-((diethylamino)methyl)-7-fluoro-1-methyl-1H-indol-5-yl)-5-ethyl-2-oxo-1,2-dihydropyridine-3-carboxylic acid], the MIC is less than 1 µg/mL in assay [1], 12.5 to 150 µg/mL (≈ 31.3 to 376 µM) in assay [2], 3.5 to 12.5 µg/mL (≈ 8.76 to 31.3 µM) in the assay with E. coli 25922 and 12.5 to 150 µg/mL (≈ 31.3 to 376 µM) in the assay with E. coli LZ3111.

`CCc1cc(C(=O)O)c(=O)[nH]c1-c1cc(F)c2c(c1)cc(CN1CCCCC1)n2C` [Cpd 102, 5-ethyl-6-(7-fluoro-1-methyl-2-(piperidin-1-ylmethyl)-1H-indol-5-yl)-2-oxo-1,2-dihydropyridine-3-carboxylic acid]: the MIC in assay [1] is less than 1 µg/mL; in assay [2], 12.5 to 150 µg/mL (≈ 30.4 to 365 µM); with E. coli 25922 it was 3.5 to 12.5 µg/mL (≈ 8.51 to 30.4 µM); in the assay with E. coli LZ3111, 12.5 to 150 µg/mL (≈ 30.4 to 365 µM).

As for `CCc1cc(C(=O)O)c(=O)[nH]c1-c1cc(C)c2c(c1)cc(CN1CCOCC1)n2C` [Cpd 103, 6-(1,7-dimethyl-2-(morpholinomethyl)-1H-indol-5-yl)-5-ethyl-2-oxo-1,2-dihydropyridine-3-carboxylic acid], the MIC in assay [1] was less than 1 µg/mL; in assay [2] it was 12.5 to 150 µg/mL (≈ 30.5 to 366 µM); with E. coli 25922, 12.5 to 150 µg/mL (≈ 30.5 to 366 µM); in the assay with E. coli LZ3111, 12.5 to 150 µg/mL (≈ 30.5 to 366 µM).

With `CCc1cc(C(=O)O)c(=O)[nH]c1-c1cc(C)c2c(c1)cc(CN(CC)CC)n2C` [Cpd 104, 6-(2-((diethylamino)methyl)-1,7-dimethyl-1H-indol-5-yl)-5-ethyl-2-oxo-1,2-dihydropyridine-3-carboxylic acid], the MIC in assay [1] was less than 1 µg/mL; in assay [2], 12.5 to 150 µg/mL (≈ 31.6 to 379 µM); in the assay with E. coli 25922, 3.5 to 12.5 µg/mL (≈ 8.85 to 31.6 µM); in the assay on E. coli LZ3111, 12.5 to 150 µg/mL (≈ 31.6 to 379 µM).

As to `CCc1cc(C(=O)O)c(=O)[nH]c1-c1cc(C)c2c(c1)cc(CN(C)C)n2C` [Cpd 105, 6-(2-((dimethylamino)methyl)-1,7-dimethyl-1H-indol-5-yl)-5-ethyl-2-oxo-1,2-dihydropyridine-3-carboxylic acid], the MIC is less than 1 µg/mL in assay [1], 12.5 to 150 µg/mL (≈ 34 to 408 µM) in assay [2], 3.5 to 12.5 µg/mL (≈ 9.53 to 34 µM) in the assay with E. coli 25922 and 12.5 to 150 µg/mL (≈ 34 to 408 µM) in the assay with E. coli LZ3111.

As for `CCc1cc(C(=O)O)c(=O)[nH]c1-c1cc(F)c2c(c1)cc(CN(C)C)n2C` [Cpd 106, 6-(2-((dimethylamino)methyl)-7-fluoro-1-methyl-1H-indol-5-yl)-5-ethyl-2-oxo-1,2-dihydropyridine-3-carboxylic acid], the MIC was less than 1 µg/mL in assay [1], 12.5 to 150 µg/mL (≈ 33.7 to 404 µM) in assay [2], 1 to 3.5 µg/mL (≈ 2.69 to 9.42 µM) in the assay on E. coli 25922 and 12.5 to 150 µg/mL (≈ 33.7 to 404 µM) in the assay with E. coli LZ3111.

On to `CCc1cc(C(=O)O)c(=O)[nH]c1-c1cc2cc(CN3CCCC3)n(C)c2cc1OC` [Cpd 107, 5-ethyl-6-(6-methoxy-1-methyl-2-(pyrrolidin-1-ylmethyl)-1H-indol-5-yl)-2-oxo-1,2-dihydropyridine-3-carboxylic acid], for which the minimal inhibitory concentration (MIC) (in assay [1]; in assay [2]; with E. coli 25922; in the assay with E. coli LZ3111) was 12.5 to 150 µg/mL (≈ 30.5 to 366 µM) throughout.

Regarding `CCc1cc(C(=O)O)c(=O)[nH]c1-c1cc2cc(CN3CCOCC3)n(C)c2cc1OC` [Cpd 108, 5-ethyl-6-(6-methoxy-1-methyl-2-(morpholinomethyl)-1H-indol-5-yl)-2-oxo-1,2-dihydropyridine-3-carboxylic acid], the MIC (in assay [1]; in assay [2]; in the assay on E. coli 25922; in the assay with E. coli LZ3111) was 12.5 to 150 µg/mL (≈ 29.4 to 353 µM) throughout.

As to `CCc1c(-c2ccc3c(c2)cc(CN2CCC2)n3C)[nH]c(=O)c(C(=O)O)c1C(=O)O` [Cpd 109, 6-(2-(azetidin-1-ylmethyl)-1-methyl-1H-indol-5-yl)-5-ethyl-2-oxo-1,2-dihydropyridine-3,4-dicarboxylic acid], the MIC (in assay [1]; in assay [2]; in the assay on E. coli 25922; in the assay on E. coli LZ3111) was 12.5 to 150 µg/mL (≈ 30.5 to 366 µM) throughout.

With `CCc1c(-c2ccc3c(c2)cc(CN2CCCC2)n3C)[nH]c(=O)c(C(=O)O)c1C(=O)O` [Cpd 110, 5-ethyl-6-(1-methyl-2-(pyrrolidin-1-ylmethyl)-1H-indol-5-yl)-2-oxo-1,2-dihydropyridine-3,4-dicarboxylic acid], the MIC (in assay [1]; in assay [2]; with E. coli 25922; with E. coli LZ3111) was 12.5 to 150 µg/mL (≈ 29.5 to 354 µM) in each case.

Consider `CCc1c(-c2ccc3c(c2)cc(CN(C)C)n3C)[nH]c(=O)c(C(=O)O)c1C(=O)O` [Cpd 111, 6-(2-((dimethylamino)methyl)-1-methyl-1H-indol-5-yl)-5-ethyl-2-oxo-1,2-dihydropyridine-3,4-dicarboxylic acid], for which the MIC (in assay [1]; in assay [2]; in the assay with E. coli 25922; in the assay with E. coli LZ3111) was 12.5 to 150 µg/mL (≈ 31.5 to 377 µM) in each case.

As for `CCc1cc(C(=O)O)c(=O)[nH]c1-c1ccc2c(c1)cc(CNC)n2C` [Cpd 112, 5-ethyl-6-(1-methyl-2-((methylamino)methyl)-1H-indol-5-yl)-2-oxo-1,2-dihydropyridine-3-carboxylic acid], the MIC in assay [1] was less than 1 µg/mL; in assay [2], 12.5 to 150 µg/mL (≈ 36.8 to 442 µM); with E. coli 25922, less than 1 µg/mL; in the assay on E. coli LZ3111, 12.5 to 150 µg/mL (≈ 36.8 to 442 µM).

`CCc1cc(C(=O)O)c(=O)[nH]c1-c1ccc2c(c1)cc(CNC(C)(C)C)n2C` [Cpd 113, 6-(2-((tert-butylamino)methyl)-1-methyl-1H-indol-5-yl)-5-ethyl-2-oxo-1,2-dihydropyridine-3-carboxylic acid]: the MIC in assay [1] was less than 1 µg/mL; in assay [2], 12.5 to 150 µg/mL (≈ 32.8 to 393 µM); in the assay with E. coli 25922, less than 1 µg/mL; with E. coli LZ3111, 12.5 to 150 µg/mL (≈ 32.8 to 393 µM).

For the compound `CCc1cc(C(=O)O)c(=O)[nH]c1-c1ccc2c(c1)cc(CNCc1ccccc1)n2C` [Cpd 114, 6-(2-((benzylamino)methyl)-1-methyl-1H-indol-5-yl)-5-ethyl-2-oxo-1,2-dihydropyridine-3-carboxylic acid], the MIC in assay [1] was less than 1 µg/mL; in assay [2] it was 3.5 to 12.5 µg/mL (≈ 8.42 to 30.1 µM); with E. coli 25922 it was less than 1 µg/mL; in the assay with E. coli LZ3111 it was 12.5 to 150 µg/mL (≈ 30.1 to 361 µM).
